What was measured:
SN 12C = assay: NCI in vitro cytotoxicity, SN 12C; conditions: Homo sapiens, SN12C
Excerpt: (§3) For these compounds results are expressed as growth inhibition (GI50) values as per NCI protocol.

A549/ATCC = assay: NCI in vitro cytotoxicity, A549/ATCC; conditions: Homo sapiens
Excerpt: as §3

NCI-H460 = assay: NCI in vitro cytotoxicity, NCI-H460; conditions: Homo sapiens
Excerpt: as §3

HOP-92 = assay: NCI in vitro cytotoxicity, HOP-92; conditions: Homo sapiens
Excerpt: as §3

SK-OV-3 = assay: NCI in vitro cytotoxicity, SK-OV-3; conditions: Homo sapiens
Excerpt: as §3

SF-268 = assay: NCI in vitro cytotoxicity, SF-268; conditions: Homo sapiens
Excerpt: as §3

SW-620 = assay: NCI in vitro cytotoxicity, SW-620; conditions: Homo sapiens
Excerpt: as §3

ACHN = assay: NCI in vitro cytotoxicity, ACHN; conditions: Homo sapiens
Excerpt: as §3

HCC-2998 = assay: NCI in vitro cytotoxicity, HCC-2998; conditions: Homo sapiens
Excerpt: as §3

SK-MEL-28 = assay: NCI in vitro cytotoxicity, SK-MEL-28; conditions: Homo sapiens
Excerpt: as §3

HL-60 (TB) = assay: NCI in vitro cytotoxicity, HL-60 (TB); type: cell-based; conditions: Homo sapiens, Leukemia
HOP-62 = assay: NCI in vitro cytotoxicity, HOP-62; conditions: Homo sapiens
Excerpt: as §3

SF-295 = assay: NCI in vitro cytotoxicity, SF-295; conditions: Homo sapiens
Excerpt: as §3

UO-31 = assay: NCI in vitro cytotoxicity, UO-31; conditions: Homo sapiens
Excerpt: as §3

MDA-MB-468 = assay: NCI in vitro cytotoxicity, MDA-MB-468; conditions: Homo sapiens
Excerpt: as §3

LOX IMVI = assay: NCI in vitro cytotoxicity, LOX IMVI; conditions: Homo sapiens
Excerpt: as §3

Renal cancer cell lines = assay: cells; type: cell-based; conditions: for CC50: read-out: Log10 LC50 mean graph midpoint (MG_MID) (converted)
Excerpt: (§1) The mean graph midpoint values of Log10 GI50 as well as Log10 LC50 for the compounds 2i, 5i and Hoechst 33258 (NSC-322921) is listed in Table 2.
(§2) Each cancer type represents the average of six to eight different cancer cell lines.

Breast cancer cell lines = assay: cells; type: cell-based; conditions: for CC50: read-out: Log10 LC50 mean graph midpoint (MG_MID) (converted)
Excerpt: as §1, §2

[1] = tested on: Non-small-cell lung cancer cell lines; assay: cells; type: cell-based; conditions: for LC50 (lethal concentration 50%): read-out: Log10 LC50 mean graph midpoint (MG_MID) (converted)
Excerpt: as §1, §2

[2] = tested on: Leukemia cancer cell lines; assay: cells; type: cell-based; conditions: for LC50 (50% lethal concentration, NCI mean graph midpoint): read-out: Log10 LC50 mean graph midpoint (MG_MID) (converted)
Excerpt: as §1, §2

[3] = tested on: Melanoma cancer cell lines; assay: cells; type: cell-based; conditions: for LC50: read-out: Log10 LC50 mean graph midpoint (MG_MID) (converted)
Excerpt: as §1, §2

Colon cancer cell lines = assay: cells; type: cell-based; conditions: for LC50: read-out: Log10 LC50 mean graph midpoint (MG_MID) (converted)
Excerpt: as §1, §2

[4] = tested on: Ovarian cancer cell lines; assay: cells; type: cell-based; conditions: for CC50: read-out: Log10 LC50 mean graph midpoint (MG_MID) (converted)
Excerpt: as §1, §2

CNS cancer cell lines = assay: cells; type: cell-based; conditions: for CC50: read-out: Log10 LC50 mean graph midpoint (MG_MID) (converted)
Excerpt: as §1, §2

[5] = tested on: Prostate cancer cell lines; assay: cells; type: cell-based; conditions: for CC50: read-out: Log10 LC50 mean graph midpoint (MG_MID) (converted)
Excerpt: as §1, §2

RXF 393 = assay: NCI in vitro cytotoxicity, RXF 393; conditions: Homo sapiens
Excerpt: as §3

UACC-257 = assay: NCI in vitro cytotoxicity, UACC-257; conditions: Homo sapiens
Excerpt: as §3

T-47D = assay: NCI in vitro cytotoxicity, T-47D; conditions: Homo sapiens, T47D
Excerpt: as §3

DU-145 = assay: NCI in vitro cytotoxicity, DU-145; conditions: Homo sapiens
Excerpt: as §3

TK-10 = assay: NCI in vitro cytotoxicity, TK-10; conditions: Homo sapiens
Excerpt: as §3

OVCAR-3 = assay: NCI in vitro cytotoxicity, OVCAR-3; conditions: Homo sapiens
Excerpt: as §3

IGROV 1 = assay: NCI in vitro cytotoxicity, IGROV 1; conditions: Homo sapiens
Excerpt: as §3

NCI-H522 = assay: NCI in vitro cytotoxicity, NCI-H522; conditions: Homo sapiens
Excerpt: as §3

CCRF-CEM = assay: NCI in vitro cytotoxicity, CCRF-CEM; conditions: Homo sapiens
Excerpt: as §3

NCI/ADR-RES = assay: NCI in vitro cytotoxicity, NCI/ADR-RES; conditions: Homo sapiens
Excerpt: as §3

MDA-MB-435 = assay: NCI in vitro cytotoxicity, MDA-MB-435; conditions: Homo sapiens
Excerpt: as §3

KM12 = assay: NCI in vitro cytotoxicity, KM12; conditions: Homo sapiens
Excerpt: as §3

NCI-H23 = assay: NCI in vitro cytotoxicity, NCI-H23; conditions: Homo sapiens
Excerpt: as §3

HS 578T = assay: NCI in vitro cytotoxicity, HS 578T; conditions: Homo sapiens
Excerpt: as §3

SNB-75 = assay: NCI in vitro cytotoxicity, SNB-75; conditions: Homo sapiens
Excerpt: as §3

MALME-3M = assay: NCI in vitro cytotoxicity, MALME-3M; conditions: Homo sapiens
Excerpt: as §3

Work on `COc1ccc2[nH]c(-c3ccc(-c4noc(-c5cc(OC)c(OC)c(OC)c5)n4)cc3)nc2c1` [5i, 3-(4-(5-Methoxy-1H-benzo[d]imidazol-2-yl)phenyl)-5-(3,4,5-trimethoxyphenyl)-1,2,4-oxadiazole] yielded a GI50 (SN 12C) of 13.2 µM, a GI50 (A549/ATCC) of 5.65 µM and a GI50 (NCI-H460) of 4.6 µM. The GI50 (HOP-92) was 14.3 µM, the GI50 (SK-OV-3) was 25.3 µM and the GI50 (SF-268) was 7.13 µM. It also gave a GI50 (SW-620) of 5.89 µM, a GI50 (ACHN) of 28.2 µM and a GI50 (HCC-2998) of 35.5 µM. For the same molecule, the GI50 (SK-MEL-28) was 9.59 µM, the GI50 (HL-60 (TB)) was 2.02 µM and the GI50 (HOP-62) was 4.44 µM. The GI50 (SF-295) was 15 µM, the GI50 (UO-31) was 1.89 µM and the GI50 (MDA-MB-468) was 6.54 µM. It also gave a GI50 (LOX IMVI) of 13.3 µM, a CC50 (Renal cancer cell lines; Homo sapiens) of 74.1 µM and a GI50 (Renal cancer cell lines; Homo sapiens, Renal, average of cell lines of the cancer type, read-out: Log10 GI50 mean graph midpoint (MG_MID) (converted)) of 14.5 µM. The CC50 (Breast cancer cell lines; Homo sapiens) was 79.4 µM, the GI50 (Breast cancer cell lines; Homo sapiens, Breast, average of cell lines of the cancer type, read-out: Log10 GI50 mean graph midpoint (MG_MID) (converted)) was 3.39 µM and the LC50 (lethal concentration 50%) ([1]; Homo sapiens) was 79.4 µM. The GI50 ([1]; Homo sapiens, Non-small-cell lung, average of cell lines of the cancer type, read-out: Log10 GI50 mean graph midpoint (MG_MID) (converted)) was 8.71 µM, the LC50 (50% lethal concentration, NCI mean graph midpoint) ([2]; Homo sapiens) was 100 µM and the GI50 ([2]; Homo sapiens, Leukemia, average of cell lines of the cancer type, read-out: Log10 GI50 mean graph midpoint (MG_MID) (converted)) was 3.31 µM. The LC50 ([3]; Homo sapiens) was 83.2 µM, the GI50 ([3]; Homo sapiens, Melanoma, average of cell lines of the cancer type, read-out: Log10 GI50 mean graph midpoint (MG_MID) (converted)) was 7.59 µM and the LC50 (Colon cancer cell lines; Homo sapiens) was 85.1 µM. For the same molecule, the GI50 (Colon cancer cell lines; Homo sapiens, Colon, average of cell lines of the cancer type, read-out: Log10 GI50 mean graph midpoint (MG_MID) (converted)) was 4.79 µM, the CC50 ([4]; Homo sapiens) was 67.6 µM and the GI50 ([4]; Homo sapiens, Ovarian, average of cell lines of the cancer type, read-out: Log10 GI50 mean graph midpoint (MG_MID) (converted)) was 7.59 µM. The CC50 (CNS cancer cell lines; Homo sapiens) was 44.7 µM, the GI50 (CNS cancer cell lines; Homo sapiens, CNS, average of cell lines of the cancer type, read-out: Log10 GI50 mean graph midpoint (MG_MID) (converted)) was 6.31 µM and the CC50 ([5]; Homo sapiens) was 91.2 µM. It also gave a GI50 ([5]; Homo sapiens, Prostate, average of cell lines of the cancer type, read-out: Log10 GI50 mean graph midpoint (MG_MID) (converted)) of 14.1 µM, a GI50 (RXF 393) of 5.24 µM and a GI50 (UACC-257) of 17.1 µM. For the same molecule, the GI50 (T-47D) was 14.7 µM, the GI50 (DU-145) was 9.48 µM and the GI50 (TK-10) was 4.62 µM. It also gave a GI50 (OVCAR-3) of 42.5 µM, a GI50 (IGROV 1) of 26.3 µM and a GI50 (NCI-H522) of 6.89 µM. It also gave a GI50 (CCRF-CEM) of 2.2 µM, a GI50 (NCI/ADR-RES) of 3.32 µM and a GI50 (MDA-MB-435) of 4.27 µM. For the same molecule, the GI50 (KM12) was 7.52 µM, the GI50 (NCI-H23) was 4.1 µM and the GI50 (HS 578T) was 9.49 µM. It also gave a GI50 (SNB-75) of 12.5 µM and a GI50 (MALME-3M) of 1.67 µM.
`COc1cc(-c2nc(-c3ccc(-c4nc5cc(F)ccc5[nH]4)cc3)no2)cc(OC)c1OC` [2i, 3-(4-(5-Fluoro-1H-benzo[d]imidazol-2-yl)phenyl)-5-(3,4,5-trimethoxyphenyl)-1,2,4-oxadiazole] showed a GI50 (SN 12C) of 3.59 µM, a GI50 (A549/ATCC) of 3.42 µM and a GI50 (NCI-H460) of 2.97 µM. The GI50 (HOP-92) was 1.76 µM, the GI50 (SK-OV-3) was 4.12 µM and the GI50 (SF-268) was 3.99 µM. It also gave a GI50 (SW-620) of 3.61 µM, a GI50 (ACHN) of 3.72 µM and a GI50 (HCC-2998) of 6.13 µM. It also gave a GI50 (SK-MEL-28) of 3.78 µM, a GI50 (HL-60 (TB)) of 2.24 µM and a GI50 (HOP-62) of 3.21 µM. It also gave a GI50 (SF-295) of 2.31 µM, a GI50 (UO-31) of 2.51 µM and a GI50 (MDA-MB-468) of 3.01 µM. For the same molecule, the GI50 (LOX IMVI) was 1.65 µM, the CC50 (Renal cancer cell lines; Homo sapiens) was 79.4 µM and the “Log10 GI50 mean graph midpoint (MG_MID)” value (Renal cancer cell lines; Renal, average of cell lines of the cancer type) was −5.45. For the same molecule, the “Log10 GI50 mean graph midpoint (MG_MID)” value (Breast cancer cell lines; Breast, average of cell lines of the cancer type) was −5.55, the CC50 (Breast cancer cell lines; Homo sapiens) was 93.3 µM and the LC50 (lethal concentration 50%) ([1]; Homo sapiens) was 75.9 µM. The “Log10 GI50 mean graph midpoint (MG_MID)” value ([1]; Non-small-cell lung, average of cell lines of the cancer type) was −5.47, the LC50 (50% lethal concentration, NCI mean graph midpoint) ([2]; Homo sapiens) was no less than 100 µM and the “Log10 GI50 mean graph midpoint (MG_MID)” value ([2]; Leukemia, average of cell lines of the cancer type) was −5.64. The LC50 ([3]; Homo sapiens) was 35.5 µM, the “Log10 GI50 mean graph midpoint (MG_MID)” value ([3]; Melanoma, average of cell lines of the cancer type) was −5.55 and the “Log10 GI50 mean graph midpoint (MG_MID)” value (Colon cancer cell lines; Colon, average of cell lines of the cancer type) was −5.44. The LC50 (Colon cancer cell lines; Homo sapiens) was 75.9 µM, the CC50 ([4]; Homo sapiens) was 87.1 µM and the “Log10 GI50 mean graph midpoint (MG_MID)” value ([4]; Ovarian, average of cell lines of the cancer type) was −5.49. For the same molecule, the “Log10 GI50 mean graph midpoint (MG_MID)” value (CNS cancer cell lines; CNS, average of cell lines of the cancer type) was −5.39, the CC50 (CNS cancer cell lines; Homo sapiens) was 91.2 µM and the CC50 ([5]; Homo sapiens) was no less than 100 µM. For the same molecule, the “Log10 GI50 mean graph midpoint (MG_MID)” value ([5]; Prostate, average of cell lines of the cancer type) was −5.51, the GI50 (RXF 393) was 1.9 µM and the GI50 (UACC-257) was 3.7 µM. It also gave a GI50 (T-47D) of 2.72 µM, a GI50 (DU-145) of 3.96 µM and a GI50 (TK-10) of 8.27 µM. The GI50 (OVCAR-3) was 2.56 µM, the GI50 (IGROV 1) was 3.81 µM and the GI50 (NCI-H522) was 3.04 µM. It also gave a GI50 (CCRF-CEM) of 2.97 µM, a GI50 (NCI/ADR-RES) of 2.49 µM and a GI50 (MDA-MB-435) of 2.73 µM. For the same molecule, the GI50 (KM12) was 3.08 µM, the GI50 (NCI-H23) was 2.5 µM and the GI50 (HS 578T) was 2.27 µM. The GI50 (SNB-75) was 7.74 µM and the GI50 (MALME-3M) was 2.32 µM.

Reference: US9522907B2, “Anticancer agent and process for the preparation thereof” (COUNCIL OF SCIENTIFIC & INDUSTRIAL RESEARCH, priority 2014, dated 2016)
